Data taken from US20240189318A1, “THERAPEUTIC REGIMENS OF AN INHIBITOR OF THE ENZYMATIC ACTIVITY OF BRG1 AND BRM” (FOGHORN THERAPEUTICS INC., priority 2021, published 2024).

Experiments:
CYP2B6 [1] = target: T1, CYP2B6 (Homo sapiens, UniProt P20813); assay: CYP enzyme inhibition in pooled human liver microsomes, CYP2B6; details: for inhibition at 30 µM: human, microsomes, Enzyme activity (% inhibition), CYP2B6, probe Efavirenz
T1 sequence (P20813 1-491): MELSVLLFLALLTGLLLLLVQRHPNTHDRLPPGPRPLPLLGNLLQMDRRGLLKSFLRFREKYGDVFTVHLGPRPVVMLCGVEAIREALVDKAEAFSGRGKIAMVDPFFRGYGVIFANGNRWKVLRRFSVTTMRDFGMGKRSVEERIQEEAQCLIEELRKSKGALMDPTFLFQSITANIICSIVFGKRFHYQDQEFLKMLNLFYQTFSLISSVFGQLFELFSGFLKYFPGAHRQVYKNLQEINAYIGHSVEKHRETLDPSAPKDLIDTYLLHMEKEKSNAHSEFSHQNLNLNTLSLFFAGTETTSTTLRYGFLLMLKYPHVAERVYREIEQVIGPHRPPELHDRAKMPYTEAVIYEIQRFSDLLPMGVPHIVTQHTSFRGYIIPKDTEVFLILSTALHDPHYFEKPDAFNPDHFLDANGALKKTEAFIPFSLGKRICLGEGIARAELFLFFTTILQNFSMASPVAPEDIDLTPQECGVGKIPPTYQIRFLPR

92-1 cells = assay: 3-day cell proliferation assay (CellTiter-Glo); details: Homo sapiens, 72 h, read-out: mean IC50, cell proliferation
CYP2D6 = CYP2D6 (Homo sapiens, UniProt P10635); assay: Depletion by recombinant CYP enzyme, CYP2D6; type: in vitro ADME; parameters: from tissue; host or cells: pooled human liver microsomes; details: recombinant 2D6
CYP2D6, sequence (P10635 whole entry): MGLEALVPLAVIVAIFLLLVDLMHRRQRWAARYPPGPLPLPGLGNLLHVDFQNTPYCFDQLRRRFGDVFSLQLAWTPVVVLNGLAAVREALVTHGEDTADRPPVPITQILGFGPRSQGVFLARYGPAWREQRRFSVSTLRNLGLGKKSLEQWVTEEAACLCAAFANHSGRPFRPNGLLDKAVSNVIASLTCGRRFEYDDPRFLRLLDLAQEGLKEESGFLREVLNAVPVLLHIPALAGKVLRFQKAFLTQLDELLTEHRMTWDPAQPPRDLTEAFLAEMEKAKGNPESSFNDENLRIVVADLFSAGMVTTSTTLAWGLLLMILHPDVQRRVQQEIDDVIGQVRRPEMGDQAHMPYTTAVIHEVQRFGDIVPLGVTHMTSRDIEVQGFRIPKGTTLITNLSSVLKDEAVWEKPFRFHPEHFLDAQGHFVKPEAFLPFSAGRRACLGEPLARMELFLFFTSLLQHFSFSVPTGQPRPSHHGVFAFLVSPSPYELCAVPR

CYP2b1 mRNA = assay: CYP mRNA expression in cultured rat hepatocytes, CYP2b1; type: in vitro ADME; details: 0.3 to 100 nM
BCRP = target: T2, BCRP (Homo sapiens, UniProt Q9UNQ0); assay: Bidirectional transport in MDCK-II cells expressing BCRP; type: in vitro ADME
T2 construct: expressed in transfected cells; host or cells: MDCK-II
T2 sequence (Q9UNQ0 1-655): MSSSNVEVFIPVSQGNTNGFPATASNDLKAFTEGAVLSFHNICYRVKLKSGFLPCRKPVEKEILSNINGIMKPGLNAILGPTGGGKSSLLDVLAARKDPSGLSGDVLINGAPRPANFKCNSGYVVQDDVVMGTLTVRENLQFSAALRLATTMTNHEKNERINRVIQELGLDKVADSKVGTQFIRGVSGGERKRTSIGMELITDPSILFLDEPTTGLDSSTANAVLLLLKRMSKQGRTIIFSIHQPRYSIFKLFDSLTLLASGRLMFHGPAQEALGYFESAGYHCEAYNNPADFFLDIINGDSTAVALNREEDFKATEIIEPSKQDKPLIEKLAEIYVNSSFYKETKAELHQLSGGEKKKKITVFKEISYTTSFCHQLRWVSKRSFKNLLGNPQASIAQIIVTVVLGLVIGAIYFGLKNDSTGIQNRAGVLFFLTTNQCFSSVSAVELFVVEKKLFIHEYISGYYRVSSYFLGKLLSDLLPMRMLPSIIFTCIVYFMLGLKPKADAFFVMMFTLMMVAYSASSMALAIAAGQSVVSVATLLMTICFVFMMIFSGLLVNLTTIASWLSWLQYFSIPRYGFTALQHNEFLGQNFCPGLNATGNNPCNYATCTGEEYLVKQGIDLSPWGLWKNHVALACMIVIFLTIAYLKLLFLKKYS

CYP2C19 = CYP2C19 (Homo sapiens, UniProt P33261); assay: Depletion by recombinant CYP enzyme, CYP2C19; type: in vitro ADME; parameters: from tissue; host or cells: pooled human liver microsomes; details: recombinant 2C19
CYP2C19, sequence (P33261 whole entry): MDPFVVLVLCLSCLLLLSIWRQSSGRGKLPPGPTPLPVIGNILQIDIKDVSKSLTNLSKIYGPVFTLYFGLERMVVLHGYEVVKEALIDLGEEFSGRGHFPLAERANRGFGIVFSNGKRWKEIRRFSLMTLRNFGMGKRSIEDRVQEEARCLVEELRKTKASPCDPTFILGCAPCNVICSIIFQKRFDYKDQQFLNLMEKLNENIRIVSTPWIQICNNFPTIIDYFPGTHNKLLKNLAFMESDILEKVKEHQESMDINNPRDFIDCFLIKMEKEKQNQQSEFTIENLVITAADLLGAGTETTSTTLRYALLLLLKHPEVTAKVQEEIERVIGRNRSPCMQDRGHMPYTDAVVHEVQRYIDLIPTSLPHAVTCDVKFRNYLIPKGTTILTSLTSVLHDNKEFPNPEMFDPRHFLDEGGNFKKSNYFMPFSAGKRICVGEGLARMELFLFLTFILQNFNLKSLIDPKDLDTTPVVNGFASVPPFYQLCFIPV

3A4/5 = assay: Selective chemical inhibition of compound of formula (I) depletion in human liver microsomes, CYP3A4/5; details: reaction phenotyping
SBC-5 cells = assay: 10-day proliferation assay, negative control cells lacking BRG1 and BRM; details: Homo sapiens, SBC-5, 240 h, read-out: mean IC50, cell proliferation
[2] = Depletion in Control Bactosomes and Reductase Control; type: in vitro ADME
CYP2B6 [3] = target: T1, CYP2B6; assay: Depletion by recombinant CYP enzyme, CYP2B6; type: in vitro ADME; parameters: from tissue; host or cells: pooled human liver microsomes; details: recombinant 2B6; 0.1 μM
CYP1a2 mRNA = assay: CYP mRNA expression in cultured rat hepatocytes, CYP1a2; type: in vitro ADME; details: 0.3 to 100 nM
CYP2C9 = CYP2C9 (Homo sapiens, UniProt P11712); assay: CYP enzyme inhibition in pooled human liver microsomes, CYP2C9; details: for inhibition at 30 µM: human, microsomes, Enzyme activity (% inhibition), CYP2C9, probe Diclofenac
CYP2C9, sequence (P11712 whole entry): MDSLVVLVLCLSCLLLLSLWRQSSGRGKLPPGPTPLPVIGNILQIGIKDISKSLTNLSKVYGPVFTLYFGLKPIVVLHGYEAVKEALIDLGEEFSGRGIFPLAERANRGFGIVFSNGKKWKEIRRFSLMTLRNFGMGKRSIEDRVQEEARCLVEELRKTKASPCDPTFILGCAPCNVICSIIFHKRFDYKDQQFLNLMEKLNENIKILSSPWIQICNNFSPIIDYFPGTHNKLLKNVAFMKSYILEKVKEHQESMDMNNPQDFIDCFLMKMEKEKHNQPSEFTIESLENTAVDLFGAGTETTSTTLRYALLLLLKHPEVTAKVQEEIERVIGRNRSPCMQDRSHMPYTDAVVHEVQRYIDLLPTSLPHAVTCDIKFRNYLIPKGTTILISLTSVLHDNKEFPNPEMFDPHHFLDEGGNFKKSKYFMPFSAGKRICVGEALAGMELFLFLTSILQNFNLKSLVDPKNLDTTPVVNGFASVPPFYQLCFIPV

[4] = test system: cultured human hepatocytes; assay: Cytotoxicity to cultured human hepatocytes (morphology, LDH release); details: second study, 0.3 to 50 nM, 72 hours
CYP2C19 mRNA = assay: CYP mRNA level in cultured human hepatocytes, CYP2C19; type: in vitro ADME; details: tested concentrations up to 50 nM
[5] = PHLM, concentrations up to 30 μM
[6] = 30 Minutes Pre-incubation with NADPH, PHLM
[7] = 30 Minutes Pre-incubation without NADPH, PHLM
[8] = human, read-out: Papp A→B, in transporter cells
[9] = human, read-out: Papp B→A, in transporter cells

For `COC[C@H](NC(=O)c1ccn(S(C)(=O)=O)c1)C(=O)Nc1nc(-c2cccc(N3C[C@@H](C)O[C@@H](C)C3)n2)cs1` [compound of formula (I), N-((S)-1-((4-(6-(cis-2,6-dimethylmorpholino)pyridin-2-yl)thiazol-2-yl)amino)-3-methoxy-1-oxopropan-2-yl)-1-(methylsulfonyl)-1H-pyrrole-3-carboxamide], the IC50 (CYP2B6 [1]) was > 30 µM, the “direct inhibitory activity (% inhibition) toward CYP2B6” value (CYP2B6 [1]; [5]) was < 50% and the inhibition at 30 µM (CYP2B6 [1]; [6]) was -10%. The inhibition at 30 µM (CYP2B6 [1]; [7]) was -6%, the inhibition at 30 µM (CYP2B6 [1]; No Pre-incubation, PHLM) was 7.6% and the IC50 (92-1 cells) was 0.00113 µM. For the same compound, the “% Remaining of Compound of Formula (I)” value (CYP2D6; 0.1 μM) was 85.0%, the “% Remaining of Compound of Formula (I)” value (CYP2D6; 1 μM) was 93.5% and the “concentrations at which CYP2b1 mRNA expression was decreased ≥50%” value (CYP2b1 mRNA) was ≥ 10 nM. The BCRP substrate status (BCRP; MDCK-II cells expressing BCRP) was “substrate”, the Papp A→B at 1 μM (BCRP; [8]) was 6.15 ×10⁻⁶ cm/s and the Papp A→B at 10 μM (BCRP; [8]) was 16.5 ×10⁻⁶ cm/s. For the same compound, the Papp A→B at 50 μM (BCRP; [8]) was 22.4 ×10⁻⁶ cm/s, the Papp B→A at 1 μM (BCRP; [9]) was 24.3 ×10⁻⁶ cm/s and the Papp B→A at 10 μM (BCRP; [9]) was 25.2 ×10⁻⁶ cm/s. For the same compound, the Papp B→A at 50 μM (BCRP; [9]) was 18.5 ×10⁻⁶ cm/s, the “% Remaining of Compound of Formula (I)” value (CYP2C19; 0.1 μM) was 80.5% and the “% Remaining of Compound of Formula (I)” value (CYP2C19; 1 μM) was 95.0%. For the same compound, the “role of CYP3A in metabolism in human liver microsomes” value (3A4/5) was “major CYP enzyme responsible”, the IC50 (SBC-5 cells) was > 25 µM and the “% Remaining of Compound of Formula (I)” value ([2]; Control Bactosomes, 0.1 μM) was 90.2%. For the same compound, the “% Remaining of Compound of Formula (I)” value ([2]; Control Bactosomes, 1 μM) was 98.3%, the “% Remaining of Compound of Formula (I)” value ([2]; Reductase Control, 0.1 μM) was 78.3% and the “% Remaining of Compound of Formula (I)” value ([2]; Reductase Control, 1 μM) was 109%. For the same compound, the “% Remaining of Compound of Formula (I)” value (CYP2B6 [3]) was 85.3%, the “CYP1a2 mRNA expression decreased ≥50%” value (CYP1a2 mRNA) was “but not CYP1a2” and the IC50 (CYP2C9) was > 30 µM. The “direct inhibitory activity (% inhibition) toward CYP2C9” value (CYP2C9; [5]) was < 50%, the inhibition at 30 µM (CYP2C9; [6]) was 43.5% and the inhibition at 30 µM (CYP2C9; [7]) was 29.5%. The inhibition at 30 µM (CYP2C9; No Pre-incubation, PHLM) was 47.1%, the “cytotoxicity to cultured human hepatocytes” value [4] was “no evidence of cytotoxicity” and the “effect on mRNA expression of CYP2C19” value (CYP2C19 mRNA) was “minimal effect”.
